This is an account of results in ChEMBL document CHEMBL1909046, “DrugMatrix in vitro pharmacology data”.

pIC50, pKi: −log10 of the molar value. Where a SMILES comes first, the peptide text is derived from it. Bridges are numbered along the chain shown (N, C = ends). [ ]: non-standard residue; d: D form. The star is where a group is joined. Threoninol(2S,3R) = C[C@@H](O)[C@H](CO)N*

Broadly, the pIC50 is −log10 of the IC50, conventionally taken in molar units. Usually pKi stands for the Ki on a negative log10 scale, so that one unit is a factor of ten.

Experiment [1] has as its target Prostaglandin G/H synthase 1 (Homo sapiens, UniProt P23219). Kind of experiment: biochemical. Format: tissue-based, Platelet. The conditions noted are these: platelet.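 Further: inhibition of COX-1 enzyme activity, with arachidonic acid supplied as substrate; in other assays of this panel Not Active means under 50% inhibition at 10 µM.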
The target in experiment [2] is Protein kinase C alpha type (Homo sapiens, UniProt P17252). Format: cell-based. As to conditions: sf9.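 Further: inhibition of PKCalpha kinase activity measured in an enzyme assay with histone as the phosphorylation substrate; in other assays of this panel Not Active means under 50% inhibition at 10 µM.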
Experiment [3] deals with Receptor tyrosine-protein kinase erbB-2 (Homo sapiens, UniProt P04626). Nature of the experiment: biochemical. The format is cell-based, Insect cells. The conditions noted are these: insect cells.
A further experiment deals with T1, Calcitonin receptor (Homo sapiens, UniProt P30988).
T1 sequence (P30988 whole entry): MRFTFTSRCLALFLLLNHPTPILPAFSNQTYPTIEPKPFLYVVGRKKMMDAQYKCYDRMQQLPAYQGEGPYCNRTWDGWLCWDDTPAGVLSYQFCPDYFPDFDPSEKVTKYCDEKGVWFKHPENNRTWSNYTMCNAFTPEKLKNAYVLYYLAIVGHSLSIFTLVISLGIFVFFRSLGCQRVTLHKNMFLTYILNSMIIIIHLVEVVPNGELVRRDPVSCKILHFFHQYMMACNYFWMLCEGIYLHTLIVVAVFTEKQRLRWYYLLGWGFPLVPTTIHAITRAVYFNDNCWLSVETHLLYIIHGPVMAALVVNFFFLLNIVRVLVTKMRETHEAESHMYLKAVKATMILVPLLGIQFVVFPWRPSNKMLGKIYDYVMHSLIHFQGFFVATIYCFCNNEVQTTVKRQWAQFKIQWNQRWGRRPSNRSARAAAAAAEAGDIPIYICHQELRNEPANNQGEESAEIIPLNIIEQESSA
The format is cell membranes, Membrane. The conditions noted are these: t47d.

The next experiment addresses T2, Substance-K receptor (Homo sapiens, UniProt P21452).
T2 sequence (P21452 whole entry): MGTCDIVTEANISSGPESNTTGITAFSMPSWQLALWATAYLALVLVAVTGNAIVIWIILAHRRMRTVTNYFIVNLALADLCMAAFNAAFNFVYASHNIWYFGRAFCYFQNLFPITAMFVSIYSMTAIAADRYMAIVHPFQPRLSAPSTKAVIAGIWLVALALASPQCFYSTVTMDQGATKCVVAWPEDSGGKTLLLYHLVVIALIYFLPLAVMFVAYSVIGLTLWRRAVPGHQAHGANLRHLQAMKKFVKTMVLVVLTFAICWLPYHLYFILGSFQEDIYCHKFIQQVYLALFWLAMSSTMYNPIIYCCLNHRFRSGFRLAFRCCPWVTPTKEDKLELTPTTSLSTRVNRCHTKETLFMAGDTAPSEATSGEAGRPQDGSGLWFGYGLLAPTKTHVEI
The format is cell membranes, CHO, Membrane. As to conditions: for IC50 / Ki: cho.

Experiment [4] addresses Beta-2 adrenergic receptor (Homo sapiens, UniProt P07550). Kind of experiment: DRUGMATRIX: Adrenergic beta2 radioligand binding (ligand: [3H] CGP-12177). The conditions noted are these: cho; Not Active = under 50% inhibition at 10 µM. Format: cell membranes, Membrane.
In experiment [5] the target is Beta-1 adrenergic receptor (Homo sapiens, UniProt P08588). Kind of experiment: DRUGMATRIX: Adrenergic beta1 radioligand binding (ligand: [125I] Cyanopindolol). The format is cell membranes, CHO-K1, Membrane. As to conditions: cho-k1; Not Active = under 50% inhibition at 10 µM.
The target in experiment [6] is Vascular endothelial growth factor receptor 1 (Homo sapiens, UniProt P17948). Format: cell-based. The conditions noted are these: huvec. Further: in other assays of this panel Not Active means under 50% inhibition at 10 µM.
Chain of Vascular endothelial growth factor receptor 1 (P17948 whole entry): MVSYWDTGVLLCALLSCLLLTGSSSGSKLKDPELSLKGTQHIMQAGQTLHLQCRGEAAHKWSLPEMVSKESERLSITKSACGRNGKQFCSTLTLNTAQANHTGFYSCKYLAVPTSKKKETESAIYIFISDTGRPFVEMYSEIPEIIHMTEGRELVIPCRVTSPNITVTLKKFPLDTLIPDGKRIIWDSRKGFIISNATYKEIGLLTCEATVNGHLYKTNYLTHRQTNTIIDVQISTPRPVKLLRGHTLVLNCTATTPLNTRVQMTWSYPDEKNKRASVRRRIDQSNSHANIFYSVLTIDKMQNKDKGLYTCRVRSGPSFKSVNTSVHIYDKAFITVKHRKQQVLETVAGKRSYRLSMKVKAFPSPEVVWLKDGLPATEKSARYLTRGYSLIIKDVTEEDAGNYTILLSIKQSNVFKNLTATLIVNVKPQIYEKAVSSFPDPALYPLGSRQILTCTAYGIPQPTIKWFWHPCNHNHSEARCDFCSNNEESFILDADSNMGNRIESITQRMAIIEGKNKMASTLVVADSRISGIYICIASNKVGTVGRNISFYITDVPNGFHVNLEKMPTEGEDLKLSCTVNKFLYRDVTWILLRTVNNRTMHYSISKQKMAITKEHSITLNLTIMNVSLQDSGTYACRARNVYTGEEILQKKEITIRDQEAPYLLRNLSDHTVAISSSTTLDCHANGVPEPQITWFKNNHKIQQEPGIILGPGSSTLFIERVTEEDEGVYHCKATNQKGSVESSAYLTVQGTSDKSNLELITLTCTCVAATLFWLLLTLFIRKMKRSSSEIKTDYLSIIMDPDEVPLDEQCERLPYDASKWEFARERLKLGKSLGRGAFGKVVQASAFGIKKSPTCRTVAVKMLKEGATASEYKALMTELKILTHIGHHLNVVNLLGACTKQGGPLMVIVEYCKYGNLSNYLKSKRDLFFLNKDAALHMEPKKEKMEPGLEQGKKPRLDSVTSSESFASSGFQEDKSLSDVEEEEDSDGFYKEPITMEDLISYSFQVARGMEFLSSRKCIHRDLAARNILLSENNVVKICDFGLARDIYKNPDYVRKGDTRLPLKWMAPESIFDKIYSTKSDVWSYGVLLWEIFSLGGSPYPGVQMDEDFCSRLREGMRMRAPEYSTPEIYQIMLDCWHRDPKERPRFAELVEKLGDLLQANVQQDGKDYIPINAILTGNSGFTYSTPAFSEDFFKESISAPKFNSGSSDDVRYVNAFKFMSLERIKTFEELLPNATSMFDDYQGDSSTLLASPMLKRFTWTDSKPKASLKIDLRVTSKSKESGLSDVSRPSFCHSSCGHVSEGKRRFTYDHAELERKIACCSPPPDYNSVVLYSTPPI

Chain of Receptor tyrosine-protein kinase erbB-2 (P04626 whole entry): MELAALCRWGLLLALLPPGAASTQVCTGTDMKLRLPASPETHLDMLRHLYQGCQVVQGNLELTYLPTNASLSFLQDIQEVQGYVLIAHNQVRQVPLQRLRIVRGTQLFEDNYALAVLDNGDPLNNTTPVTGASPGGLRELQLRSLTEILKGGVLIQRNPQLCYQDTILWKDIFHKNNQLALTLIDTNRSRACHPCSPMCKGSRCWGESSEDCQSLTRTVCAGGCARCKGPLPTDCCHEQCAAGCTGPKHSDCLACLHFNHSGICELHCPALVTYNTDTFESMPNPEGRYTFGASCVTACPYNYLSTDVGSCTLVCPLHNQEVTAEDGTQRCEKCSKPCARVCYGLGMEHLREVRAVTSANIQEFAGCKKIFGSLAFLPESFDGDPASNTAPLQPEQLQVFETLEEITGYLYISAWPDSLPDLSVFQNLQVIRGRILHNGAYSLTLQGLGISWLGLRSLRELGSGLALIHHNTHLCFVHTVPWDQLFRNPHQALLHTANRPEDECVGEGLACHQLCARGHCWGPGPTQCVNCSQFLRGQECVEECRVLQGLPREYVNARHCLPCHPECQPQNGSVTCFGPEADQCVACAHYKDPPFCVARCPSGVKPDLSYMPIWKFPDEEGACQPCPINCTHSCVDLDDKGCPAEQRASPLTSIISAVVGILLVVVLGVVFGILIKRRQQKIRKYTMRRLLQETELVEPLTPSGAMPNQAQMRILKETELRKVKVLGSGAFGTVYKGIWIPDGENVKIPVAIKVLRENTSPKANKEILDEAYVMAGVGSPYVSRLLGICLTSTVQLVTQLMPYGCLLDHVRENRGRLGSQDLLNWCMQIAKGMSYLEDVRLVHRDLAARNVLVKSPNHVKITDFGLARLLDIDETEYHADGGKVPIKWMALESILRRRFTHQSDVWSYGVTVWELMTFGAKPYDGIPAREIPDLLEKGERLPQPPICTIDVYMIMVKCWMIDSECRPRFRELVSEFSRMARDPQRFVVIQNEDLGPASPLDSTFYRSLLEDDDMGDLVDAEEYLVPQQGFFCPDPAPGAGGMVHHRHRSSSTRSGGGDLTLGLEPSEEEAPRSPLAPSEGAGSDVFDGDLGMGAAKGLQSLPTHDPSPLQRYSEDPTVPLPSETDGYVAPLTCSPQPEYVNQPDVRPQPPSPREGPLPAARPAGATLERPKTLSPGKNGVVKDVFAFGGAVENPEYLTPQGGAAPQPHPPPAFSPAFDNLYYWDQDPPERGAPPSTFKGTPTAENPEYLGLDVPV
Chain of Prostaglandin G/H synthase 1 (P23219 whole entry): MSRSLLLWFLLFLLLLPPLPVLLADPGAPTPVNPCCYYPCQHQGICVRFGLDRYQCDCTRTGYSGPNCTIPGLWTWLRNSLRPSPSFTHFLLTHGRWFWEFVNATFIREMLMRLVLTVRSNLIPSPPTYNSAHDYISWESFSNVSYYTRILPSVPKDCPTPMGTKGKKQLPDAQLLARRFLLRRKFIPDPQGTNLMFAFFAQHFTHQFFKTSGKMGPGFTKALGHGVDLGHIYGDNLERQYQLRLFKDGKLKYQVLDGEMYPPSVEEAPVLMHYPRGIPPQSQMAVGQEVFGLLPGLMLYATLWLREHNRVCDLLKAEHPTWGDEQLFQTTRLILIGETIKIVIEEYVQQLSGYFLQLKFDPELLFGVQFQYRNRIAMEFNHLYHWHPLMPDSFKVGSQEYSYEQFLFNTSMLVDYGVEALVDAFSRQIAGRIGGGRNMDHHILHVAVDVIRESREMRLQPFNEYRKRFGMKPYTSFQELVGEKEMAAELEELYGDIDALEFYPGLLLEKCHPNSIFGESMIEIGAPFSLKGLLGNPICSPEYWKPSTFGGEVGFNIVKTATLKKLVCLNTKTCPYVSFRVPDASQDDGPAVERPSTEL
Chain of Beta-1 adrenergic receptor (P08588 whole entry): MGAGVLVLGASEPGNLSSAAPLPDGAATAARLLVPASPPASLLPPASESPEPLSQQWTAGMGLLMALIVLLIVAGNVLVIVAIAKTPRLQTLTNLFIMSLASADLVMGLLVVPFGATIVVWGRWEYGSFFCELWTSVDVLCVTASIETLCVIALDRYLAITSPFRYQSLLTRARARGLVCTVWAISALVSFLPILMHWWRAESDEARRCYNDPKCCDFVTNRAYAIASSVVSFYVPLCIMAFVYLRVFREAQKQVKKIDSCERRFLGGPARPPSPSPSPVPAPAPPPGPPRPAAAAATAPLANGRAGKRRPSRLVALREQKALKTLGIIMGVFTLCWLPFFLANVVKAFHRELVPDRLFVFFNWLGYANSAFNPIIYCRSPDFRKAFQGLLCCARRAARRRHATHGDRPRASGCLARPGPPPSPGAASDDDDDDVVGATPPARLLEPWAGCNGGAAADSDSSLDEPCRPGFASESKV

As for `COc1ccccc1C(=O)N1CCC(Cc2ccccc2)CC1`, the IC50 result (in experiment [1]; in experiment [2]; in experiment [3]; at Calcitonin receptor; on Substance-K receptor; in experiment [4]) was “Not Active” throughout. The IC50 entry in experiment [5] and in experiment [6] was “Not Active” each time.
`Cc1ccccc1C(=O)N1CCC(Cc2ccccc2)CC1`: the IC50 result (in experiment [1]; in experiment [2]; in experiment [3]; at Calcitonin receptor; at Substance-K receptor; in experiment [4]) was “Not Active” throughout. In addition, the IC50 entry in experiment [5] and in experiment [6] was “Not Active” in each case.
Regarding `O=C1CC[C@H](N2C(=O)c3ccccc3C2=O)C(=O)N1`, the IC50 result (in experiment [1]; in experiment [2]; in experiment [3]; at Calcitonin receptor; against Substance-K receptor; in experiment [4]) was “Not Active” in each case. Also, the IC50 result in experiment [5] and in experiment [6] was “Not Active” in each case.
Turning to `N=C(Nc1ccccc1)Nc1ccccc1`, the IC50 entry (in experiment [1]; in experiment [2]; in experiment [3]; at Calcitonin receptor; at Substance-K receptor; in experiment [4]) was “Not Active” in each case. In addition, the IC50 entry in experiment [5] and in experiment [6] was “Not Active” each time.
`C[C@@H](O)[C@H](CO)NC(=O)[C@@H]1CSSC[C@H](NC(=O)[C@H](N)Cc2ccccc2)C(=O)N[C@@H](Cc2ccccc2)C(=O)N[C@H](Cc2c[nH]c3ccccc23)C(=O)N[C@@H](CCCCN)C(=O)N[C@@H]([C@@H](C)O)C(=O)N1` (H-[dF]CF[dW]KTC-{Threoninol(2S,3R)}; disulfide 2-7): the IC50 entry (in experiment [1]; in experiment [2]; in experiment [3]; at Calcitonin receptor; on Substance-K receptor; in experiment [4]) was “Not Active” each time. Besides, the IC50 entry in experiment [5] and in experiment [6] was “Not Active” each time.
As for `S=C=Nc1cccc2ccccc12` [1-NAPHTHYLISOTHIOCYANATE], the IC50 result (in experiment [1]; in experiment [2]; in experiment [3]; at Calcitonin receptor; on Substance-K receptor; in experiment [4]) was “Not Active” throughout. Further, the IC50 entry in experiment [5] and in experiment [6] was “Not Active” throughout.
For `C[C@](O)(CS(=O)(=O)c1ccc(F)cc1)C(=O)Nc1ccc(C#N)c(C(F)(F)F)c1` [(R)-BICALUTAMIDE], the IC50 entry (in experiment [1]; in experiment [2]; in experiment [3]; at Calcitonin receptor; against Substance-K receptor; in experiment [4]) was “Not Active” each time. Also, the IC50 entry in experiment [5] and in experiment [6] was “Not Active” in each case.
With `CCCC(=O)Nc1ccc(OCC(O)CNC(C)C)c(C(C)=O)c1` (stereo not given) [ACEBUTOLOL], the IC50 entry (in experiment [1]; in experiment [2]; in experiment [3]; at Calcitonin receptor; against Substance-K receptor; in experiment [6]) was “Not Active” each time.
For `CC(=O)Nc1ccc(O)cc1` [ACETAMINOPHEN], the IC50 entry (in experiment [1]; in experiment [2]; in experiment [3]; at Calcitonin receptor; at Substance-K receptor; in experiment [4]) was “Not Active” each time. Besides, the IC50 entry in experiment [5] and in experiment [6] was “Not Active” each time.
For the molecule `COc1cc2c(c3oc(=O)c4c(c13)CCC4=O)[C@@H]1C=CO[C@@H]1O2` [AFLATOXIN], the IC50 result (in experiment [1]; in experiment [2]; in experiment [3]; on Calcitonin receptor; against Substance-K receptor; in experiment [4]) was “Not Active” in each case. Further, the IC50 entry in experiment [5] and in experiment [6] was “Not Active” in each case. Also, the Ki entry (in experiment [1]; in experiment [2]; in experiment [3]; at Calcitonin receptor; at Substance-K receptor; in experiment [4]) was “Not Active” throughout. For the same molecule, the Ki entry in experiment [5] and in experiment [6] was “Not Active” throughout.
As for `N=C(N)NC(=O)c1nc(Cl)c(N)nc1N` [AMILORIDE], the IC50 entry (in experiment [1]; in experiment [2]; in experiment [3]; at Calcitonin receptor; at Substance-K receptor; in experiment [4]) was “Not Active” throughout. For the same molecule, the IC50 entry in experiment [5] and in experiment [6] was “Not Active” each time.
On to `Nc1c(CC(=O)O)cccc1C(=O)c1ccc(Br)cc1` [BROMFENAC], for which the IC50 entry (in experiment [2]; in experiment [3]; at Calcitonin receptor; on Substance-K receptor; in experiment [4]; in experiment [5]) was “Not Active” throughout. Besides, the IC50 entry in experiment [6] is “Not Active”.
As for `C/C=C/C[C@@H](C)[C@@H](O)[C@H]1C(=O)N[C@@H](CC)C(=O)N(C)CC(=O)N(C)[C@@H](CC(C)C)C(=O)N[C@@H](C(C)C)C(=O)N(C)[C@@H](CC(C)C)C(=O)N[C@@H](C)C(=O)N[C@H](C)C(=O)N(C)[C@@H](CC(C)C)C(=O)N(C)[C@@H](CC(C)C)C(=O)N(C)[C@@H](C(C)C)C(=O)N1C` [CYCLOSPORINE], the IC50 entry (in experiment [1]; in experiment [2]; in experiment [3]; on Calcitonin receptor; in experiment [4]; in experiment [5]) was “Not Active” in each case. For the same molecule, the IC50 result in experiment [6] was “Not Active”.
On to `O=C(O)Cc1ccccc1Nc1c(Cl)cccc1Cl` [DICLOFENAC], for which the IC50 result (in experiment [2]; in experiment [3]; on Calcitonin receptor; on Substance-K receptor; in experiment [4]; in experiment [5]) was “Not Active” each time. In experiment [6], the IC50 entry is “Not Active”.
Consider `CN(C)c1ccc(C(=C2C=CC(=[N+](C)C)C=C2)c2ccc(N(C)C)cc2)cc1.[Cl-]` [GENTIAN VIOLET], for which the IC50 entry (in experiment [1]; in experiment [2]; in experiment [3]; at Calcitonin receptor; in experiment [4]; in experiment [6]) was “Not Active” in each case. Besides, at Substance-K receptor (read-out: IC50), the pIC50 was 5.77. In addition, the pKi on Substance-K receptor (read-out: Ki) is 6.25.
As to `CC(C)Cc1ccc(C(C)C(=O)O)cc1` (stereo not given) [IBUPROFEN], the IC50 entry (in experiment [2]; in experiment [3]; at Calcitonin receptor; at Substance-K receptor; in experiment [4]; in experiment [5]) was “Not Active” throughout. Further, the IC50 entry in experiment [6] is recorded as “Not Active”.
Regarding `COc1ccc2c(c1)c(CC(=O)O)c(C)n2C(=O)c1ccc(Cl)cc1` [INDOMETHACIN], the IC50 entry (in experiment [2]; in experiment [3]; on Calcitonin receptor; against Substance-K receptor; in experiment [4]; in experiment [5]) was “Not Active” each time. The IC50 entry in experiment [6] was “Not Active”.
As to `CC(C(=O)O)c1cccc(C(=O)c2ccccc2)c1` (stereo not given) [KETOPROFEN], the IC50 result (in experiment [2]; in experiment [3]; at Calcitonin receptor; at Substance-K receptor; in experiment [4]; in experiment [5]) was “Not Active” in each case. Also, in experiment [6], the IC50 entry is on record as “Not Active”.
As for `COc1ccc2cc([C@H](C)C(=O)O)ccc2c1` [NAPROXEN], the IC50 result (in experiment [2]; in experiment [3]; at Calcitonin receptor; against Substance-K receptor; in experiment [4]; in experiment [5]) was “Not Active” each time. Besides, the IC50 result in experiment [6] is recorded as “Not Active”.
Turning to CADMIUM DICHLORIDE, the IC50 entry (in experiment [1]; in experiment [2]; on Calcitonin receptor; against Substance-K receptor; in experiment [4]; in experiment [5]) was “Not Active” each time. In experiment [6], the IC50 result was “Not Active”. Besides, the Ki entry (in experiment [1]; in experiment [2]; at Calcitonin receptor; on Substance-K receptor; in experiment [4]; in experiment [5]) was “Not Active” throughout. For the same molecule, in experiment [6], the Ki entry is “Not Active”.
